Data reported in paper PMC11324297, “CDKL3 is a targetable regulator of cell cycle progression in cancers” (The Journal of Clinical Investigation, 2024).

Tests used:
[1] = tested on: HeLa; experiment: cells; set-up: tumour cell growth suppression, dose response, 24 h; conditions: Homo sapiens, 24 h
Description: (§1) On the basis of a previous publication, a potential CDKL3 inhibitor candidate caught our attention. […] Thus, we intended to generate an efficient CDKL3 inhibitor based on this chemical backbone for cell cycle arrest. As the first step, the original compound (ASC67) was synthesized, and the performance was evaluated ([50]). The addition of ASC67 could gradient-dependently diminish the phosphorylation of Rb by CDKL3 while not influencing CDK4 or CDK2 in vitro (Figure 8B). The effectiveness of this chemical was then evaluated using a variety of cancer cell lines, including estrogen-responsive (ER^+) breast cancer, for which palbociclib is administrated clinically ([51]). […] As a direct comparison, the clinically approved CDK4/6 inhibitor had IC50 values ranging from 1 to 5 μM in different cell lines (Figure 8, C–F, and Supplemental Figure 6, A–F) ([47], [52]–[55]). This information made it evident that ASC67 holds considerable promise in cancer treatment and can be used as a backbone compound for further optimization. Chemical treatments Cdk1/2 Inhibitor III was dissolved in DMSO with a concentration of 25mM as stock solution. Cells were treated at a final concentration of 1.2μM. 5μM was used for in vitro kinase assay. Palbociclib was dissolved in DMSO with a concentration of 100mM as stock solution. Cells were treated with Palbociclib at a final concentration of 0.8μM. 5μM was used for in vitro kinase assay. Thymidine was dissolved in ddH2O with a concentration of 200mM. Cells were treated with Thymidine at a final concentration of 2mM. ASC67 was dissolved in DMSO with a concentration of 300mM as stock solution. For IC50 assay, cells were treated at a concentration range from 0 to 300μM. For in vitro kinase assay, the concentration ranging from 0 to 0.5μM was used. The inhibitor C3I-22 (HZ1) was dissolved in DMSO with a concentration of 300mM as stock solution. For IC50 assay, cells were treated with a concentration range from 0 to 300μM. For in vitro kinase assay, the concentration ranging from 0 to 0.1μM was used. Organoids derived from colon cancer patients were treated with a concentration range from 0 to 5μM. Balb/cA-nude and C57BL/6J-Apcmin/+ mice were treated with a concentration of 1mg/kg (suspended in PBS) through oral gavage. Other C3I inhibitors were dissolved in DMSO with a concentration of 200mM as stock solution. In vitro protein purification GST-tagged proteins were transformed into E. coli BL21 competent cells, and then protein expression was induced by adding IPTG (Beyotime Biotechnology) at 18°C for 6 to 10 hours. The bacterial culture was centrifuged (600xg, 10 min, 4°C), and the pellets were resuspended in 20mL lysis buffer (50mM Tris-HCl, 300mM NaCl, and 10% (v/v) glycerol, 1mM [compound left out], pH 7.9) and sonicated with 50% power on a SCIENTZ JY92-IIN sonicator for 20 minutes (5 seconds per time, with an interval of 5 seconds).

[2] = tested on: MDA-MB-231; experiment: cells; set-up: tumour cell growth suppression, dose response, 24 h; conditions: Homo sapiens, MDA-MB-231, 24 h
Description: as §1

[3] = tested on: U2OS; experiment: cells; set-up: tumour cell growth suppression, dose response, 24 h; conditions: Homo sapiens, 24 h
Description: as §1

[4] = tested on: HeLa; experiment: cells; set-up: tumour cell growth suppression, dose response, 72 h; conditions: Homo sapiens, 72 h
Description: as §1

[5] = tested on: MDA-MB-231; experiment: cells; set-up: tumour cell growth suppression, dose response, 72 h; conditions: Homo sapiens, MDA-MB-231, 72 h
Description: as §1

[6] = tested on: U2OS; experiment: cells; set-up: tumour cell growth suppression, dose response, 72 h; conditions: Homo sapiens, 72 h
Description: as §1

[7] = tested on: DLD-1; experiment: cells; set-up: tumour cell growth suppression, dose response, 24 h; conditions: Homo sapiens, 24 h, parental cells
Description: as §1

[8] = tested on: DLD-1; experiment: cells; set-up: tumour cell growth suppression, dose response, 72 h; conditions: Homo sapiens, 72 h, parental cells
Description: as §1

[9] = tested on: MCF7; experiment: cells; set-up: tumour cell growth suppression, dose response, 24 h; conditions: Homo sapiens, 24 h, parental cells
Description: as §1

[10] = tested on: T47D; experiment: cells; set-up: tumour cell growth suppression, dose response, 24 h; conditions: Homo sapiens, 24 h, parental cells
Description: as §1

[11] = tested on: MCF7; experiment: cells; set-up: tumour cell growth suppression, dose response, 72 h; conditions: Homo sapiens, 72 h, parental cells
Description: as §1

[12] = tested on: T47D; experiment: cells; set-up: tumour cell growth suppression, dose response, 72 h; conditions: Homo sapiens, 72 h, parental cells
Description: as §1

[13] = target: Stub1 (UniProt Q9UNE7); experiment: co-immunoprecipitation; conditions: reference: CDK4 wild type; sites T172
[14] = target: Trim28 (UniProt Q13263); experiment: co-immunoprecipitation; conditions: reference: CDK4 wild type; sites T172
[15] = target: UBE3A (UniProt Q05086); experiment: co-immunoprecipitation; conditions: reference: CDK4 wild type; sites T172

N#CCc1ccc(Nc2nccc(Nc3cc(C4CCCC4)n[nH]3)n2)cc1 [ASC67]
IC50 [1]: 0.954 µM
IC50 [2]: 1.83 µM
IC50 [3]: 1.81 µM
IC50 [4]: 1.55 µM
IC50 [5]: 0.381 µM
IC50 [6]: 0.998 µM

CC(=O)c1ccc(Nc2nccc(Nc3cc(C4CCCC4)n[nH]3)n2)cc1 [C3I-22, HZ1]
IC50 [7]: 0.6 µM
IC50 ([3]; parental cells): 1.32 µM
IC50 [8]: 0.147 µM
IC50 [6]: 0.348 µM
IC50 ([6]; parental cells): 0.415 µM

CC(=O)c1c(C)c2cnc(Nc3ccc(N4CCNCC4)cn3)nc2n(C2CCCC2)c1=O [palbociclib]
IC50 [1]: 4.24 µM
IC50 [9]: 2.88 µM
IC50 [2]: 5.2 µM
IC50 [10]: 2.15 µM
IC50 [3]: 3.52 µM
IC50 [11]: 2.57 µM
IC50 [12]: 1.86 µM

CDK4 (from UniProt P11802) CDK4 T172A
binding against the reference [13]: stronger
binding against the reference [14]: stronger
binding against the reference [15]: stronger

O=C(O)c1ccc(Nc2nccc(Nc3cc(C4CCCC4)n[nH]3)n2)cc1 [C3I-22-1, 4-((4-((3-cyclopentyl-1H-pyrazol-5-yl)amino)pyrimidin-2-yl)amino)benzoic acid]
IC50 [6]: 38.8 µM
